A short description of series [1]: Blood and tissue levels in female mice. The format is in vivo. Particulars: oral administration of 100 mg/kg of the sodium salt.
A further series has as its system Staphylococcus aureus. The experiment in a line: Antibacterial synergism, microtitre MIC (Example 42). The format is cell-based. Particulars: method of Example 42.
Series [2] has as its system β-lactamase producing strains of Proteus mirabilis and Staphylococcus aureus. The experiment in a line: Synergism with cephaloridine (properties of clavulanic acid). The format is cell-based.
The test system of series [3] is strains of Staphylococcus aureus. The series is described as follows: Growth inhibition (properties of clavulanic acid). The format is cell-based.
Series [4] concerns β-lactamase producing strains of Escherichia coli, Klebsiella aerogenes and Staphylococcus aureus. The experiment in a line: Synergism with ampicillin (properties of clavulanic acid). The format is cell-based.
Series [5] in a line: Hydrolysis of ester to clavulanic acid in pH 7 buffer. The format is physicochemical. Particulars: water buffered to pH7. As to the method:
The reaction was followed by paper chromatography (bioautographic system). Using the butanol/ethanol/water system to follow the reaction over a period of 2 hours the zone of the methyl ester of Rf 0.79 decreased in size as the zone of clavulanic acid at Rf 0.12 increased.

For series [6], the system named is strains of Klebsiella aerogenes A. The series is described as follows: Growth inhibition, penicillins with synergist (description). The format is cell-based.
A further series has as its system Klebsiella aerogenes 62. The experiment in a line: Antibacterial synergism, microtitre MIC (Example 42). The format is cell-based. The following applies: method of Example 42; unit not given.
The next series has as its system Proteus mirabilis C889. The experiment in a line: M.I.C. with clavulanic acid methyl ester (Example 32). The format is cell-based.
Another series relates to Klebsiella aerogenes A. The experiment in a line: Antibacterial synergism, microtitre MIC (Example 42). The format is cell-based. The following applies: method of Example 42; unit not given.
Series [7] deals with Klebsiella aerogenes E 70. The description is as above. The following applies: method of Example 42; unit not given. The format is cell-based.
Series [8] relates to Staphylococcus aureus (Russell). The experiment in a line: M.I.C. with clavulanic acid methyl ester (Example 32). The format is cell-based.

Structures can show the parent of a compound that is named as a salt.

For the molecule `O=C(O)[C@H]1/C(=C/CO)O[C@@H]2CC(=O)N21` [clavulanic acid sodium salt, 3-(β-hydroxyethylidine)-7-oxo-4-oxa-1-azabicyclo[3,2,0]heptane-2-carboxylic acid sodium salt], the “Levels of clavulanic acid” value in series [1] is recorded as “useful levels”.
Take `O=C(Cc1cccs1)N[C@@H]1C(=O)N2C(C(=O)[O-])=C(C[n+]3ccccc3)CS[C@H]12` [Cephaloridine, cephaloridine]: the “Minimum Inhibitory Concentrations, cephaloridine in presence of 5 μg/ml clavulanic acid sodium salt” value in the series with Staphylococcus aureus amounted to 3.7 µg/mL.
For `O=C(O)[C@H]1/C(=C/CO)O[C@@H]2CC(=O)N21` [clavulanic acid, Z-(2R,5R)-3-(β-hydroxyethylidene)-7-oxo-4-oxa-1-azabicyclo[3,2,0]heptane-2-carboxylic acid], in series [2], the “Synergism of the antibacterial effect of cephaloridine” value is listed as “able to synergise the antibacterial effect of cephaloridine”. Moreover, in series [3], the “Inhibition of growth of strains of Staphylococcus aureus” value is reported as “able to inhibit the growth”. Besides, in [4], the “Synergism of the antibacterial effect of ampicillin” value was “able to synergise the antibacterial effect of ampicillin”.
For the molecule `COC(=O)[C@H]1/C(=C/CO)O[C@@H]2CC(=O)N21` [clavulanic acid methyl ester], the “Hydrolysis to clavulanic acid” value in [5] is “slowly hydrolyse to clavulanic acid”.
`CC1(C)S[C@@H]2[C@H](NC(=O)Cc3ccccc3)C(=O)N2[C@H]1C(=O)O` [Benzylpenicillin, benzylpenicillin]: in [6], the “Concentration of penicillin that inhibits growth when 5 μg/ml. of clavulanic acid is also present” value is “less than 12.5 μg/ml”.
As for `CC1(C)S[C@@H]2[C@H](NC(=O)[C@H](N)c3ccccc3)C(=O)N2[C@H]1C(=O)O` [Ampicillin, ampicillin], the “MIC of Ampicillin + 5 μg/ml of Benzyl Ester of clavulanic acid” value in the series on Klebsiella aerogenes 62 stood at 3.9; in the series with Klebsiella aerogenes A, 1.9; in [7], 3.9. The “MIC of Ampicillin + 5 μg/ml of Methyl Ester of clavulanic acid” value in the series on Klebsiella aerogenes 62 amounted to 3.9; with Klebsiella aerogenes A, 1.9; in series [7], 3.9. In addition, in the series with Proteus mirabilis C889, the “M.I.C. for ampicillin in the presence of 5 μg/ml. clavulanic acid methyl ester” value was found to be 31 µg/mL. Also, in series [8], the “M.I.C. of antibiotic in the presence of 1.0 μg/ml. clavulanic acid methyl ester” value is below 0.4 µg/mL.

Values taken from patent publication US6218380A, “Pharmaceutical compositions” (SmithKline Beecham p.l.c., priority 1991, dated 2001).
